Results on two molecules are retold here after patent US20230122911A1, “FORMULATIONS OF ENZALUTAMIDE” (Astellas Pharma Inc., priority 2012, published 2023).

Data set [1] is described as follows: Microcentrifuge dissolution test in Model Fasted Duodenal Solution. Type of data set: physicochemical. Particulars: for Enzalutamide Concentration / AUC90 (area under the curve at 90 minutes) / Cmax,90 (maximum drug concentration through 90 minutes): MFDS pH 6.5, dose 200 µg/ml; for AUC90 (area under the curve at 90 minutes) / Cmax,90 (maximum drug concentration through 90 minutes): Table 4.2; for Average enzalutamide concentration: Table 9.1. The source says:
The in vitro dissolution test to evaluate enhanced drug concentration in aqueous solution can be conducted by (1) adding with agitation a sufficient quantity of control composition, that is, the crystalline enzalutamide alone, to the in vitro test medium, typically MFD or PBS solution, to determine the maximum concentration of the enzalutamide achieved under the conditions of the test: (2) adding with agitation a sufficient quantity of test composition (e.g., the enzalutamide and polymer) in an equivalent test medium, such that if all the enzalutamide dissolved, the theoretical concentration of enzalutamide would exceed the observed maximum concentration of enzalutamide by a factor of about 20; and (3) comparing the measured MDC and/or aqueous concentration versus time AUC90 of the test composition in the test medium with the maximum concentration, and/or the aqueous concentration versus time AUC90 of the control composition. In conducting such a dissolution test, the amount of test composition or control composition used is an amount such that if all of the enzalutamide dissolved, the test enzalutamide concentration would be at least about 20-fold that of the control enzalutamide concentration.
The concentration of dissolved enzalutamide is typically measured as a function of time by sampling the test medium and plotting enzalutamide concentration in the test medium vs. time so that the MDC can be ascertained. The MDC is taken to be the maximum value of dissolved enzalutamide measured over the duration of the test. The enzalutamide concentration versus time AUC90 is calculated by integrating the concentration versus time curve over any 90-minute time period between the time of introduction of the composition into the aqueous use environment (time equals zero) and 270 minutes following introduction to the use environment (time equals 270 minutes). Typically, when the composition reaches its MDC rapidly, in less than about 30 minutes, the time interval used to calculate AUC90 is from time equals zero to time equals 90 minutes. However, if the AUC90 over any 90-minute time period described above of a composition meets the criteria of compositions described herein, then the composition is included in compositions of this disclosure. The time period 270 min is chosen because of its physiological relevance. Drug absorption in mammals generally occurs in the small intestine, and the small intestinal transit time in humans is approximately 4.5 hr, or 270 min.
To avoid large enzalutamide particulates which would give an erroneous determination, the test solution is either filtered or centrifuged. “Dissolved enzalutamide” is typically taken as that material that either passes a 0.45 micron syringe filter or, alternatively, the material that remains in the supernatant following centrifugation. Filtration can be conducted using a 13 mm, 0.45 micron polyvinylidine difluoride syringe filter, such as the filter sold by Scientific Resources under the trademark TITAN™. Centrifugation is typically carried out in a polypropylene microcentrifuge tube by centrifuging at 13.000 G for 60 seconds. Other similar filtration or centrifugation methods can be employed and useful results obtained. For example, using other types of microfilters may yield values somewhat higher or lower (+/- 10-40%) than that obtained with the filter specified above but will still allow identification of dispersions. It is recognized that this definition of “dissolved enzalutamide” encompasses not only monomeric solvated enzalutamide molecules but also a wide range of species such as polymer/enzalutamide assemblies that have submicron dimensions such as enzalutamide aggregates, aggregates of mixtures of polymer and enzalutamide, micelles, polymeric micelles, colloidal particles, polymer/enzalutamide complexes, and other such enzalutamide-containing species that are present in the filtrate or supernatant in the specified dissolution test. […]

Data set [2] in a line: Membrane-permeation (MP) dissolution test. Type of data set: in vitro ADME. As to the method:
The membrane permeability test described in the Examples below is carried out as follows. A drug-permeable membrane is placed between feed and permeate reservoirs. A sufficient quantity of test composition is added to a feed test medium and placed in the feed reservoir, while a water immiscible organic solution, such as a 60/40 mixture of decanol/decane, is placed in the permeate reservoir. Samples are removed from the permeate reservoir and analyzed for the concentration of drug as a function of time. […] Further details of this membrane permeation test are disclosed in U.S. Pat. No 7,611,630 B2.
The MP-dissolution test, whose details are described above, measures a capability of low solubility drug formulations which is not measured in the microcentrifuge dissolution test utilized in Examples 4 and 7. This test mimics an aspect of the in vivo situation in the GI tract. In the in vivo situation, it is generally accepted that free drug in solution (i.e. individual drug molecules dissolved in the GI medium without association with formulation components) is the species which is absorbed across the gastrointestinal wall into the bloodstream. As free drug is absorbed, the formulation must be capable of supplying more free drug for absorption. The membrane permeation test measures the amount of drug which crosses a polymeric membrane (as a model of the GI wall) over time, and thus reflects the ability of the formulation to resupply free drug in solution to be further passively transported across the polymeric membrane. In Table 8.1 below, Maximum Flux is the maximum observed rate of permeation across the polymeric membrane, based on the slope of the absorption curve over any period within the 240 minute duration of the experiment, normalized for membrane area. Total drug recovery is the % of the initial drug dose which has crossed the membrane when the test ended at 240 minutes.

[3] abbreviates: listed as Amorphous (spray-dried) enzalutamide.

Consider `CNC(=O)c1ccc(N2C(=S)N(c3ccc(C#N)c(C(F)(F)F)c3)C(=O)C2(C)C)cc1F` [Amorphous enzalutamide, 4-{3-[4-cyano-3-(trifluoromethyl)phenyl]-5,5-dimethyl-4-oxo-2-sulfanylideneimidazolidin-1-yl}-2-fluoro-N-methylbenzamide], for which the “Enzalutamide Concentration” value in data set [1] (0 min) was 0.0 µg/mL; in data set [1] (4 min, listed as Amorphous (spray-dried) enzalutamide), 61 µg/mL; in data set [1] (10 min, listed as Amorphous (spray-dried) enzalutamide), 100 µg/mL; in data set [1] (20 min, listed as Amorphous (spray-dried) enzalutamide), 100 µg/mL; in data set [1] (40 min, listed as Amorphous (spray-dried) enzalutamide), 110 µg/mL; in data set [1] (90 min, listed as Amorphous (spray-dried) enzalutamide), 120 µg/mL. Also, the “Enzalutamide Concentration” value in data set [1] (1200 min, listed as Amorphous (spray-dried) enzalutamide) stood at 30 µg/mL. The “AUC90 (area under the curve at 90 minutes)” value in data set [1] (setting [3]) was 9,500 min*µg/mL. Further, the “Cmax,90 (maximum drug concentration through 90 minutes)” value in data set [1] (setting [3]) was 120000 ng/mL. Also, in data set [2] (Table 8.1, within 240 minute duration, normalized for membrane area, listed as Amorphous (spray-dried) enzalutamide), the “Maximum Flux” value turned out to be 1.3 µg/cm^2×min.

`CNC(=O)c1ccc(N2C(=S)N(c3ccc(C#N)c(C(F)(F)F)c3)C(=O)C2(C)C)cc1F` [Control 1, 4-{3-[4-cyano-3-(trifluoromethyl)phenyl]-5,5-dimethyl-4-oxo-2-sulfanylideneimidazolidin-1-yl}-2-fluoro-N-methylbenzamide]: the “Enzalutamide Concentration” value in data set [1] (4 min) was determined as 1 µg/mL; in data set [1] (10 min), 3 µg/mL; in data set [1] (20 min), 5 µg/mL; in data set [1] (40 min), 6 µg/mL; in data set [1] (90 min), 7 µg/mL; in data set [1] (1200 min), 9 µg/mL. Also, in data set [1], the “AUC90 (area under the curve at 90 minutes)” value was found to be 500 µg·min/mL. Besides, the “Cmax,90 (maximum drug concentration through 90 minutes)” value in data set [1] was 7000 ng/mL. Further, the Average enzalutamide concentration in data set [1] (0 min) was found to be 0.32 µg/mL; in data set [1] (4 min) it was 5.23 µg/mL; in data set [1] (10 min), 8.04 µg/mL; in data set [1] (20 min), 7.69 µg/mL; in data set [1] (40 min) it was 8.65 µg/mL; in data set [1] (90 min) it was 9.14 µg/mL. In addition, the Average enzalutamide concentration in data set [1] (1200 min) turned out to be 12.12 µg/mL. This molecule showed an AUC90 min in data set [1] (Table 9.2) of 740 µg·min/mL. The “Cmax,90 min” value in data set [1] (Table 9.2) came out at 10000 ng/mL. The “Maximum Flux” value in data set [2] (Table 8.1, within 240 minute duration, normalized for membrane area) is 0.4 µg/cm^2×min; in data set [2] (Table 9.3), 0.4 µg/cm^2-min.
